Counter-ions that a name gives are not always drawn.
Experiments:
[1] = Polymorphic stability of crystalline forms over a period of time; format: physicochemical
[2] = Storage stability of crystalline form L2 (temperature/RH conditions, HPLC purity); format: physicochemical
[3] = neat crystalline dihydrochloride salts N1 and N2, screening studies; cited from earlier work

SMILES: COC(=O)N[C@H](C(=O)N1CCC[C@H]1c1nc(-c2ccc(-c3ccc(-c4c[nH]c([C@@H]5CCCN5C(=O)[C@@H](NC(=O)OC)C(C)C)n4)cc3)cc2)c[nH]1)C(C)C [form L1, N,N′-[[1,1′-biphenyl]-4,4′-diylbis[1H-imidazole-5,2-diyl-(2S)-2,1-pyrrolidinediyl[(1S)-1-(1-methylethyl)-2-oxo-2,1-ethanediyl]]]bis-carbamic acid, C,C′-dimethyl ester, hydrochloride (1:2)]
- polymorphic stability (conversion to any other polymorphic form) [1]: stable and do not get converted to any other polymorphic form

SMILES: COC(=O)N[C@H](C(=O)N1CCC[C@H]1c1nc(-c2ccc(-c3ccc(-c4c[nH]c([C@@H]5CCCN5C(=O)[C@@H](NC(=O)OC)C(C)C)n4)cc3)cc2)c[nH]1)C(C)C [form L2, N,N′-[[1,1′-biphenyl]-4,4′-diylbis[1H-imidazole-5,2-diyl-(2S)-2,1-pyrrolidinediyl[(1S)-1-(1-methylethyl)-2-oxo-2,1-ethanediyl]]]bis-carbamic acid, C,C′-dimethyl ester, hydrochloride (1:2)]
- stability ([2]; 5±3° C.): stable
- stability ([2]; 25±2° C./60±5% RH): stable
- stability ([2]; 40±2° C./75±5% RH): stable

SMILES: COC(=O)N[C@H](C(=O)N1CCC[C@H]1c1nc(-c2ccc(-c3ccc(-c4c[nH]c([C@@H]5CCCN5C(=O)[C@@H](NC(=O)OC)C(C)C)n4)cc3)cc2)c[nH]1)C(C)C [form N-2, N,N′-[[1,1′-biphenyl]-4,4′-diylbis[1H-imidazole-5,2-diyl-(2S)-2,1-pyrrolidinediyl[(1S)-1-(1-methylethyl)-2-oxo-2,1-ethanediyl]]]bis-carbamic acid, C,C′-dimethyl ester, hydrochloride (1:2)]
- thermodynamic stability among polymorphs [3]: thermodynamically most stable polymorph

Source: US20190256498A1, “CRYSTALLINE FORMS OF DACLATASVIR DIHYDROCHLORIDE” (LUPIN LIMITED, priority 2016, published 2019)
